Measured values: patent publication US6403575B1, “3-Pyridyl enantiomers and their use as analgesics” (Abbott Laboratories, priority 1996, dated 2002)
Counter-ions that a name gives are not always drawn.

Tests used:
mice = test: Mouse Hot Plate Paradigm; type: in vivo; design: key to MED Hot plate model (μmol/kg, i.p.): NS = no significant effect observed relative to saline controls at the doses tested; conditions: 30 minutes prior to testing, 55° C.; for minimal effective dose: ip, 0.5 h, i.p., read-out: MED Hot plate model (μmol/kg, i.p.)
[1] = target: T1, neuronal nicotinic acetylcholine receptors (Rattus norvegicus, UniProt P09483+P12390); test: [3H]-cytisine binding to neuronal nicotinic acetylcholine receptors, whole rat brain membranes; conditions: [3H]-cytisine 1.25 nM, whole rat brain membranes; read-out: [3H] CYT Ki
T1 construct: crude synaptic membrane preparations from whole rat brain; from tissue; host or cells: whole rat brain, crude synaptic membranes
T1 sequence (P09483 31-630): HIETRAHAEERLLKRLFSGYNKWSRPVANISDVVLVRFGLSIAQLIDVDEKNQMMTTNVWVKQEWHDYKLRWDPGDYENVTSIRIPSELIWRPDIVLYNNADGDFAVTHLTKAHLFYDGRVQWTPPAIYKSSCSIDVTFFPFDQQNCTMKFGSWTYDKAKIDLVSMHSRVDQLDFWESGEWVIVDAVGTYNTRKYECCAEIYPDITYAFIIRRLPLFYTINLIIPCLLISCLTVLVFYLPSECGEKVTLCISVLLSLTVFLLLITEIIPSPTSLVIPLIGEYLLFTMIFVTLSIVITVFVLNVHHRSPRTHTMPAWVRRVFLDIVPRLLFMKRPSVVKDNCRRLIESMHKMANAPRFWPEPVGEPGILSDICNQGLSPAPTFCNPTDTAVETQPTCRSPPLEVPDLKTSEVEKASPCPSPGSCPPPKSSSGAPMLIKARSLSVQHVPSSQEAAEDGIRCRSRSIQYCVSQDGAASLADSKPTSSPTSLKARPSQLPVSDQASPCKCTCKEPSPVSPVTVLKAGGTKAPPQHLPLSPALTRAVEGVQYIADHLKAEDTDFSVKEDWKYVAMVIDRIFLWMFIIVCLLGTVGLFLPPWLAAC
T1 sequence (P12390 25-500): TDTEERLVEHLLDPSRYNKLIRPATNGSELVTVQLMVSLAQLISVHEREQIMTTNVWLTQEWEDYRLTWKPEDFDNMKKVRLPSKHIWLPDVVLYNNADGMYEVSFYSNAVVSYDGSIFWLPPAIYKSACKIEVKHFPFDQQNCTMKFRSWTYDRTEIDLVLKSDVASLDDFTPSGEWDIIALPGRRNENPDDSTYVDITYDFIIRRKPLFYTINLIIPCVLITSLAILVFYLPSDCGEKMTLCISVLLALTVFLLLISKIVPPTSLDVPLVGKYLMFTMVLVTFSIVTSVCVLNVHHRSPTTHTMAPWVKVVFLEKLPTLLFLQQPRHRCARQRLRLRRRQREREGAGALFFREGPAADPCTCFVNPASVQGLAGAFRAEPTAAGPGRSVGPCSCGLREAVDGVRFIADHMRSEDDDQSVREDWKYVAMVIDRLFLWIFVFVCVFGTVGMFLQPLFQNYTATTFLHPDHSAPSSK
Description: Protocol for Determination of Nicotinic Acetylcholine Channel Receptor Binding Potencies of Ligands
Binding of [^3H]-cytisine ([^3H]-CYT) to neuronal nicotinic acetylcholine receptors was accomplished using crude synaptic membrane preparations from whole rat brain (Pabreza et al., Molecular Pharmacol., 1990, 39:9). Washed membranes were stored at −80° C. prior to use. Frozen aliquots were slowly thawed and resuspended in 20 volumes of buffer (containing: 120 mM NaCl, 5 mM KCl, 2 mM MgCl2, 2 mM CaCl2 and 50 mM Tris-Cl, pH 7.4 @4° C.). After centrifuging at 20,000×g for 15 minutes, the pellets were resuspended in 30 volumes of buffer. Homogenate (containing 125-150 μg protein) was added to triplicate tubes containing concentrations of test compound and [^3H]-CYT (1.25 nM) in a final volume of 500 μL. Samples were incubated for 60 minutes at 4° C., then rapidly filtered through Whatman GF/B filters presoaked in 0.5% polyethyleneimine using 3×4 mL of ice-cold buffer. The filters are counted in 4 mL of Ecolume® (ICN). Nonspecific binding was determined in the presence of 10 μM (−)-nicotine and values were expressed as a percentage of total binding.

[2] = target: T2, peripheral ganglionic receptors (Homo sapiens, UniProt P30926+P32297); test: 86Rb+ flux activation in IMR-32 human neuroblastoma cells; type: cell-based; conditions: 1 μM compound, % of maximum response to (S)-nicotine
T2 construct: Cells of the IMR-32 human neuroblastoma clonal cell line (ATCC, Rockville, Md.); host or cells: IMR-32 human neuroblastoma cells
T2 sequence (P32297 32-505): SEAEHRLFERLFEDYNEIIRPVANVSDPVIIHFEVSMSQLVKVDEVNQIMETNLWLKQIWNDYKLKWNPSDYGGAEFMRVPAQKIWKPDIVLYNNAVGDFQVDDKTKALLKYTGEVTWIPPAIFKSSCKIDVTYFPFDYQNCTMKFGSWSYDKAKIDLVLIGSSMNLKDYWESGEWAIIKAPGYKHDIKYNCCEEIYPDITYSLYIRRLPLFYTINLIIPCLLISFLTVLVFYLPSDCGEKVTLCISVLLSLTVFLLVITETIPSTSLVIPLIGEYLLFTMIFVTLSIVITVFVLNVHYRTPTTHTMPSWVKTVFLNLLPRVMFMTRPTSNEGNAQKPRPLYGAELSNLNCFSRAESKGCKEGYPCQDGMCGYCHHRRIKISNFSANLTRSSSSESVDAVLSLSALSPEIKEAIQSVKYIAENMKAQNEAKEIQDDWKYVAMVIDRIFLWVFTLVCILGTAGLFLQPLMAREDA
T2 sequence (P30926 22-498): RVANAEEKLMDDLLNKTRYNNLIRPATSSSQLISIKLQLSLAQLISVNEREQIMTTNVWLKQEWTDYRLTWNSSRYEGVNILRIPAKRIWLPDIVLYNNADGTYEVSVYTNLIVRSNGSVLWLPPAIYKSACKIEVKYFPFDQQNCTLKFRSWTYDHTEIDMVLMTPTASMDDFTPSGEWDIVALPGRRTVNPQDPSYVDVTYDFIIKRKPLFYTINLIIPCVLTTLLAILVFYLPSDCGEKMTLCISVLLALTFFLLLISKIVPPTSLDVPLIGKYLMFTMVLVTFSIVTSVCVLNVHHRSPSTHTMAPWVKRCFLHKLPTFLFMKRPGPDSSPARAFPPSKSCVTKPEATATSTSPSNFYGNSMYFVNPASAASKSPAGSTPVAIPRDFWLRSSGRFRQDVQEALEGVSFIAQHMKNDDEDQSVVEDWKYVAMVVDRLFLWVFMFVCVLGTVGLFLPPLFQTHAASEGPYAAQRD
Description: Protocol for the Determination of Ability of Nicotinic Acetylcholine Receptor Ligands to Activate Peripheral Ganglionic Receptors
Cells of the IMR-32 human neuroblastoma clonal cell line (ATCC, Rockville, Md.) were maintained in a log phase of growth according to established procedures. Experimental cells were seeded at a density of 500,000 cells/mL into a 24-well tissue culture dish. Plated cells were allowed to proliferate for at least 48 hours before loading with 2 μCi/mL of ^86Rb^+ (35 Ci/mmol) overnight at 37° C. The ^86Rb^+ efflux assays were performed according to previously published protocols (Lukas, R. J., J. Pharmacol. Exp. Ther., 265: 294-302, 1993) except serum-free Dulbecco's Modified Eagle's Medium was used during the ^86Rb^+ loading, rinsing, and agonist-induced efflux steps. Data reflect the activation of ^86Rb^+ flux at a concentration of 1 μM, and reflect the response as a percentage of the maximum response elicited by (S)-nicotine.

SMILES | melting point | Ki [1] [nM] | other results
Cc1ccc(OC[C@H]2CCN2)cn1 (as salt: HCl) [Example 115, 6-Methyl-3-(2-(R)-azetidinylmethoxy)pyridine] | 134 to 136 °C |  | 
Fc1cncc(OC[C@@H]2CCN2)c1 (as salt: hydrochloride) [Example 10, 5-((2S)-Azetidinylmethyloxy)-3-fluoropyridine dihydrochloride] | 165 to 167 °C |  | 
Brc1cncc(OC[C@@H]2CCN2)c1 (as salt: hydrochloride) [Example 12, 5-((2S)-Azetidinylmethyloxy)-3-bromopyridine dihydrochloride] | 163 to 165 °C |  | 
Clc1cc(OC[C@@H]2CCN2)cnc1Cl (as salt: hydrochloride) [Example 15, 5-((2S)-azetidinylmethoxy)-2,3-dichloropyridine hydrochloride] | 181 to 182 °C |  | 
Clc1cc(OC[C@H]2CCN2)cnc1Cl (as salt: hydrochloride) [Example 16, 5-((2R)-azetidinylmethoxy)-2,3-dichloropyridine hydrochloride] | 166 to 168 °C |  | 
Clc1ncc(OC[C@@H]2CCN2)cc1Br (as salt: hydrochloride) [Example 17, 5-((2S)-azetidinylmethoxy)-3-bromo-2-chloropyridine hydrochloride] | 168 to 169 °C |  | 
Clc1ncc(OC[C@H]2CCN2)cc1Br (as salt: hydrochloride) [Example 18, 5-((2R)-azetidinylmethoxy)-3-bromo-2-chloropyridine hydrochloride] | 175 °C |  | 
Cc1ccc(OC[C@@H]2CCN2)cn1 (as salt: hydrochloride) [Example 20, 5-((2S)-Azetidinylmethyloxy)-2-methylpyridine dihydrochloride] | 141 to 144 °C |  | 
C=Cc1cncc(OC[C@@H]2CCN2)c1 (as salt: hydrochloride) [Example 22, 5-Vinyl-3-((2S)-Azetidinylmethyloxy)lpyridine dihydrochloride] | 88 to 90 °C |  | 
CCCc1cncc(OC[C@@H]2CCN2)c1 (as salt: hydrochloride) [Example 24, 5-Propyl-3-((2S)-azetidinylmethyloxy)lpyridine hydrochloride] | 79 to 80 °C |  | 
C=Cc1cc(OC[C@@H]2CCN2)cnc1Cl (as salt: hydrochloride) [Example 26, 2-Chloro-3-vinyl-5-((2S)-azetidinylmethoxy)pyridine hydrochloride] | 121 °C (dec.) |  | 
CCc1cc(OC[C@@H]2CCN2)cnc1Cl (as salt: hydrochloride) [Example 27, 2-Chloro-3-ethyl-5-((2S)-azetidinylmethoxy)pyridine hydrochloride] | 102 to 104 °C |  | 
CCCc1cc(OC[C@@H]2CCN2)cnc1Cl (as salt: hydrochloride) [Example 28, 2-Chloro-3-propyl-5-((2S)-azetidinylmethoxy)pyridine hydrochloride] | 148 to 150 °C |  | 
CCCCc1cc(OC[C@@H]2CCN2)cnc1Cl (as salt: hydrochloride) [Example 29, 3-Butyl-2-chloro-5-((2S)-azetidinylmethoxy)pyridine hydrochloride] | 88 to 90 °C |  | 
C#Cc1cc(OC[C@@H]2CCN2)cnc1Cl (as salt: hydrochloride) [Example 30, 2-Chloro-3-ethynyl-5-((2S)-azetidinylmethoxy)pyridine hydrochloride] | 90 °C (dec.) |  | 
C=Cc1cc(OC[C@@H]2CCN2)cnc1C (as salt: hydrochloride) [Example 35, 6-Methyl-5-vinyl-3-((2S)-azetidinylmethoxy)pyridine hydrochloride] | 154 to 155 °C |  | 
CCc1cc(OC[C@@H]2CCN2)cnc1C (as salt: hydrochloride) [Example 36, 6-Ethyl-6-methyl-3-((2S)-azetidinylmethoxy)pyridine hydrochloride] | 150 to 153 °C |  | 
Fc1cncc(OC[C@H]2CCN2)c1 (as salt: salt) [Example 11, 5-((2R)-Azetidinylmethyloxy)-3-fluoropyridine dibenzoate] | 163 to 165 °C |  | 

SMILES | melting point | Ki [1] [nM] | other results
Cc1cc(OC[C@@H]2CCN2)cnc1F (as salt: salt) [Example 32, 5-((2S)-azetidinylmethoxy)-3-methyl-2-fluoropyridine benzoate] | 104 to 108 °C |  | 
Fc1ncc(OCC2CCN2)cc1Cl (stereo not shown) (as salt: tosylate) [Example 33, 5-((29)-azetidinylmethoxy)-3-chloro-2-fluoropyridine tosylate] | 99 °C |  | 
Fc1ccc(OC[C@@H]2CCN2)c(F)n1 (as salt: tosylate) [Example 116, 2.6-Difluoro-3-(2-(S)-azetidinylmethoxy)pyridine tosylate] | 140 to 143 °C |  | 
Fc1ncc(OC[C@H]2CCN2)cc1Br (as salt: tosylate) [Example 125, 5-bromo-6-fluoro-3-(2-(R)-azetidinylmethoxy)pyridine] | 238 to 240 °C |  | 
CCc1cc(OC[C@@H]2CCN2)cnc1F (as salt: tosylate) [Example 126, 5-ethyl-6-fluoro-3-(2-(S)-azetidinylmethoxy)pyridine] | 106 to 108 °C |  | 
Fc1cncc(OC[C@H]2CCN2)c1 [Example 11, 5-((2R)-Azetidinylmethyloxy)-3-fluoropyridine dibenzoate] |  | 0.34 | MED Hot plate model (μmol/kg, i.p.) (mice): NS; IMR-32 % maximal nicotine response at 1 μM Cmpd conc'n [2]: 31%
Cc1cncc(OC[C@@H]2CCN2)c1 [Example 13, 5-Methyl-3-((2S)-Azetidinylmethyloxy)pyridine dibenzoate] |  | 0.05 | MED Hot plate model (μmol/kg, i.p.) (mice): NS; IMR-32 % maximal nicotine response at 1 μM Cmpd conc'n [2]: 27%
Cc1cncc(OC[C@H]2CCN2)c1 [Example 14, 5-Methyl-3-((2R)-azetidinylmethyloxy)pyridine hydrochloride] |  | 0.18 | minimal effective dose (mice): 62 µmol/kg; IMR-32 % maximal nicotine response at 1 μM Cmpd conc'n [2]: 15%
CCCc1cc(OC[C@@H]2CCN2)cnc1Cl [Example 28, 2-Chloro-3-propyl-5-((2S)-azetidinylmethoxy)pyridine hydrochloride] |  | 0.03 | MED Hot plate model (μmol/kg, i.p.) (mice): NS
CCCCc1cc(OC[C@@H]2CCN2)cnc1Cl [Example 29, 3-Butyl-2-chloro-5-((2S)-azetidinylmethoxy)pyridine hydrochloride] |  | 0.16 | MED Hot plate model (μmol/kg, i.p.) (mice): NS
C#Cc1cc(OC[C@@H]2CCN2)cnc1Cl [Example 30, 2-Chloro-3-ethynyl-5-((2S)-azetidinylmethoxy)pyridine hydrochloride] |  | 0.04 | minimal effective dose (mice): 6.2 µmol/kg
Fc1ncc(OC[C@@H]2CCN2)cc1Br [Example 31, 5-((2S)-azetidinylmethoxy)-3-bromo-2-fluoropyridine dibenzoic acid salt] |  | 0.03 | minimal effective dose (mice): 6.2 µmol/kg
Cc1cc(OC[C@@H]2CCN2)cnc1F [Example 32, 5-((2S)-azetidinylmethoxy)-3-methyl-2-fluoropyridine benzoate] |  | 0.1 | MED Hot plate model (μmol/kg, i.p.) (mice): NS
Cc1ncc(OC[C@@H]2CCN2)cc1Br [Example 34, 5-Bromo-6-methyl-3-((2S)-azetidinylmethoxy)pyridine dihydrochloride] |  | 0.02 | minimal effective dose (mice): 0.62 µmol/kg
C=Cc1cc(OC[C@@H]2CCN2)cnc1C [Example 35, 6-Methyl-5-vinyl-3-((2S)-azetidinylmethoxy)pyridine hydrochloride] |  | 0.22 | MED Hot plate model (μmol/kg, i.p.) (mice): NS
CCc1cc(OC[C@@H]2CCN2)cnc1C [Example 36, 6-Ethyl-6-methyl-3-((2S)-azetidinylmethoxy)pyridine hydrochloride] |  | 0.04 | MED Hot plate model (μmol/kg, i.p.) (mice): NS
COc1ccc(OC[C@H]2CCN2)cn1 [Example 119, 6-Methoxy-3-(2(R)-azetidinylmethoxy)pyridine] | 139 to 142 °C | 0.67 | 
Cl.O=[N+]([O-])c1cncc(OC[C@@H]2CCN2)c1 [Example 132, 5-nitro-3-(2-(S)-azetidinylmethoxy)pyridine hydrochloride] | 162 to 164 °C (dec.) | 0.33 | 
